# ChEMBL document CHEMBL3885861, “Open TG-GATES”
# Species on record: Rattus norvegicus
# Assay: Open TG-GATES - Regimen: Daily Repeat
# Assay type: toxicity, organism-based, Sprague-Dawley
# Design: regimen Daily Repeat, gender Male, age 6 weeks
# Details: in vivo, po, 300 mg/kg, route gavage, dose level Middle; for APTT / Bas / Eos / Fbg / Hb / Ht / Lym / MCH / MCHC / MCV / Mono / Neu / PT / Plat / RBC / Ret / WBC: tissue Blood; for KIDNEY_L / KIDNEY_R / KIDNEY_TOTAL: tissue Kidney; for LIVER: tissue Liver; for A/G / ALP / ALT / AST / BUN / CRE / Ca / Cl / DBIL / GLC / IP / K / LDH / Na / PL / RALB / TBIL / TC / TG / TP / gamma-GTP: tissue Plasma
smiles,measurement,setting,value
O=C(OC[C@H]1O[C@@H](OC(=O)c2cc(O)c(O)c(OC(=O)c3cc(O)c(O)c(O)c3)c2)[C@H](OC(=O)c2cc(O)c(O)c(OC(=O)c3cc(O)c(O)c(O)c3)c2)[C@@H](OC(=O)c2cc(O)c(O)c(OC(=O)c3cc(O)c(O)c(O)c3)c2)[C@@H]1OC(=O)c1cc(O)c(O)c(OC(=O)c2cc(O)c(O)c(O)c2)c1)c1cc(O)c(O)c(OC(=O)c2cc(O)c(O)c(O)c2)c1 [TANNIC ACID],TERMINAL_BW,"72 h, time 3 day",215.8 g
same,APTT,"72 h, time 3 day",16.1 s
same,Bas,"72 h, time 3 day",0%
same,Eos,"72 h, time 3 day",1%
same,Fbg,"72 h, time 3 day",240.8 mg/dL
same,Hb,"72 h, time 3 day",13.1 g/dL
same,Ht,"72 h, time 3 day",39.3%
same,Lym,"72 h, time 3 day",76.8%
same,MCH,"72 h, time 3 day",21.6 pg
same,MCHC,"72 h, time 3 day",33.3%
same,MCV,"72 h, time 3 day",64.9 fL
same,Mono,"72 h, time 3 day",10%
same,Neu,"72 h, time 3 day",12.4%
same,PT,"72 h, time 3 day",11.5 s
same,Plat,"72 h, time 3 day",118.8 x10_4/uL
same,RBC,"72 h, time 3 day",606.2 x10_4/ul
same,Ret,"72 h, time 3 day",7.7%
same,WBC,"72 h, time 3 day",77.2 x10_2/uL
same,KIDNEY_L,"72 h, time 3 day",1 g
same,KIDNEY_R,"72 h, time 3 day",1 g
same,KIDNEY_TOTAL,"72 h, time 3 day",1.9 g
same,LIVER,"72 h, time 3 day",10.9 g
same,A/G,"72 h, time 3 day",2.1
same,ALP,"72 h, time 3 day",808.4 IU/L
same,ALT,"72 h, time 3 day",35 IU/L
same,AST,"72 h, time 3 day",62.8 IU/L
same,BUN,"72 h, time 3 day",17.8 mg/dL
same,CRE,"72 h, time 3 day",0.5 mg/dL
same,Ca,"72 h, time 3 day",10.9 mg/dL
same,Cl,"72 h, time 3 day",103.4 meq/L
same,DBIL,"72 h, time 3 day",0.004 mg/dL
same,GLC,"72 h, time 3 day",207.6 mg/dL
same,IP,"72 h, time 3 day",8.7 mg/dL
same,K,"72 h, time 3 day",4.6 meq/L
same,LDH,"72 h, time 3 day",83 IU/L
same,Na,"72 h, time 3 day",139 meq/L
same,PL,"72 h, time 3 day",159.2 mg/dL
same,RALB,"72 h, time 3 day",3.8 g/dL
same,TBIL,"72 h, time 3 day",0.3 mg/dL
same,TC,"72 h, time 3 day",84.6 mg/dL
same,TG,"72 h, time 3 day",109.2 mg/dL
same,TP,"72 h, time 3 day",5.6 g/dL
same,gamma-GTP,"72 h, time 3 day",0.6 IU/L
same,TERMINAL_BW,"[…], time 7 day",250.4 g
same,TERMINAL_BW,"[…], time 14 day",315.8 g
same,TERMINAL_BW,"[…], time 28 day",397.8 g
same,APTT,"[…], time 7 day",17.1 s
same,Bas,"[…], time 7 day",0%
same,Eos,"[…], time 7 day",1.4%
same,Fbg,"[…], time 7 day",226 mg/dL
same,Hb,"[…], time 7 day",13.4 g/dL
same,Ht,"[…], time 7 day",40.6%
same,Lym,"[…], time 7 day",81.2%
same,MCH,"[…], time 7 day",21.3 pg
same,MCHC,"[…], time 7 day",33.1%
same,MCV,"[…], time 7 day",64.2 fL
same,Mono,"[…], time 7 day",4.8%
same,Neu,"[…], time 7 day",12.8%
same,PT,"[…], time 7 day",10.9 s
same,Plat,"[…], time 7 day",123.2 x10_4/uL
same,RBC,"[…], time 7 day",631.8 x10_4/ul
same,Ret,"[…], time 7 day",6.5%
same,WBC,"[…], time 7 day",103.7 x10_2/uL
same,APTT,"[…], time 14 day",16.7 s
same,Bas,"[…], time 14 day",0%
same,Eos,"[…], time 14 day",1.2%
same,Fbg,"[…], time 14 day",261.2 mg/dL
same,Hb,"[…], time 14 day",13.7 g/dL
same,Ht,"[…], time 14 day",41.1%
same,Lym,"[…], time 14 day",75.4%
same,MCH,"[…], time 14 day",20.7 pg
same,MCHC,"[…], time 14 day",33.4%
same,MCV,"[…], time 14 day",62.1 fL
same,Mono,"[…], time 14 day",8%
same,Neu,"[…], time 14 day",15.4%
same,PT,"[…], time 14 day",11.5 s
same,Plat,"[…], time 14 day",123.3 x10_4/uL
same,RBC,"[…], time 14 day",662.6 x10_4/ul
same,Ret,"[…], time 14 day",5.5%
same,WBC,"[…], time 14 day",101.9 x10_2/uL
same,APTT,"[…], time 28 day",16.6 s
same,Bas,"[…], time 28 day",0%
same,Eos,"[…], time 28 day",1.8%
same,Fbg,"[…], time 28 day",232.8 mg/dL
same,Hb,"[…], time 28 day",15 g/dL
same,Ht,"[…], time 28 day",45.2%
same,Lym,"[…], time 28 day",77.8%
same,MCH,"[…], time 28 day",19.6 pg
same,MCHC,"[…], time 28 day",33.2%
same,MCV,"[…], time 28 day",59.1 fL
same,Mono,"[…], time 28 day",6.2%
same,Neu,"[…], time 28 day",14.5%
same,PT,"[…], time 28 day",11.9 s
same,Plat,"[…], time 28 day",113.3 x10_4/uL
same,RBC,"[…], time 28 day",765.2 x10_4/ul
same,Ret,"[…], time 28 day",3%
same,WBC,"[…], time 28 day",112.2 x10_2/uL
same,KIDNEY_L,"[…], time 7 day",1 g
same,KIDNEY_R,"[…], time 7 day",1 g
same,KIDNEY_TOTAL,"[…], time 7 day",2.1 g
same,KIDNEY_L,"[…], time 14 day",1.4 g
same,KIDNEY_R,"[…], time 14 day",1.3 g
same,KIDNEY_TOTAL,"[…], time 14 day",2.7 g
same,KIDNEY_L,"[…], time 28 day",1.4 g
same,KIDNEY_R,"[…], time 28 day",1.4 g
same,KIDNEY_TOTAL,"[…], time 28 day",2.9 g
same,LIVER,"[…], time 7 day",12.2 g
same,LIVER,"[…], time 14 day",14.7 g
same,LIVER,"[…], time 28 day",17 g
same,A/G,"[…], time 7 day",1.6
same,ALP,"[…], time 7 day",926.8 IU/L
same,ALT,"[…], time 7 day",35.8 IU/L
same,AST,"[…], time 7 day",62.2 IU/L
same,BUN,"[…], time 7 day",19.4 mg/dL
same,CRE,"[…], time 7 day",0.6 mg/dL
same,Ca,"[…], time 7 day",10.8 mg/dL
same,Cl,"[…], time 7 day",103 meq/L
same,DBIL,"[…], time 7 day",0.016 mg/dL
same,GLC,"[…], time 7 day",205.6 mg/dL
same,IP,"[…], time 7 day",7.9 mg/dL
same,K,"[…], time 7 day",4.5 meq/L
same,LDH,"[…], time 7 day",98.6 IU/L
same,Na,"[…], time 7 day",137.4 meq/L
same,PL,"[…], time 7 day",154.6 mg/dL
same,RALB,"[…], time 7 day",3.7 g/dL
same,TBIL,"[…], time 7 day",0.4 mg/dL
same,TC,"[…], time 7 day",81.2 mg/dL
same,TG,"[…], time 7 day",119.6 mg/dL
same,TP,"[…], time 7 day",6.1 g/dL
same,gamma-GTP,"[…], time 7 day",1.6 IU/L
same,A/G,"[…], time 14 day",1.7
same,ALP,"[…], time 14 day",702.2 IU/L
same,ALT,"[…], time 14 day",32.4 IU/L
same,AST,"[…], time 14 day",62.8 IU/L
same,BUN,"[…], time 14 day",20 mg/dL
same,CRE,"[…], time 14 day",0.6 mg/dL
same,Ca,"[…], time 14 day",10.7 mg/dL
same,Cl,"[…], time 14 day",103.4 meq/L
same,DBIL,"[…], time 14 day",0.008 mg/dL
same,GLC,"[…], time 14 day",202.4 mg/dL
same,IP,"[…], time 14 day",8.3 mg/dL
same,K,"[…], time 14 day",4.4 meq/L
same,LDH,"[…], time 14 day",83.4 IU/L
same,Na,"[…], time 14 day",139.8 meq/L
same,PL,"[…], time 14 day",151.6 mg/dL
same,RALB,"[…], time 14 day",3.8 g/dL
same,TBIL,"[…], time 14 day",0.3 mg/dL
same,TC,"[…], time 14 day",79.6 mg/dL
same,TG,"[…], time 14 day",116.8 mg/dL
same,TP,"[…], time 14 day",6 g/dL
same,gamma-GTP,"[…], time 14 day",1.4 IU/L
same,A/G,"[…], time 28 day",1.8
same,ALP,"[…], time 28 day",534 IU/L
same,ALT,"[…], time 28 day",32.2 IU/L
same,AST,"[…], time 28 day",55.5 IU/L
same,BUN,"[…], time 28 day",20 mg/dL
same,CRE,"[…], time 28 day",0.6 mg/dL
same,Ca,"[…], time 28 day",11 mg/dL
same,Cl,"[…], time 28 day",105.8 meq/L
same,DBIL,"[…], time 28 day",0.01 mg/dL
same,GLC,"[…], time 28 day",201.8 mg/dL
same,IP,"[…], time 28 day",7.9 mg/dL
same,K,"[…], time 28 day",4.5 meq/L
same,LDH,"[…], time 28 day",83.2 IU/L
same,Na,"[…], time 28 day",139.5 meq/L
same,PL,"[…], time 28 day",141.8 mg/dL
same,RALB,"[…], time 28 day",4 g/dL
same,TBIL,"[…], time 28 day",0.3 mg/dL
same,TC,"[…], time 28 day",70.2 mg/dL
same,TG,"[…], time 28 day",133.8 mg/dL
same,TP,"[…], time 28 day",6.2 g/dL
same,gamma-GTP,"[…], time 28 day",0.5 IU/L
